For the first experiment, the system named is primary hepatocytes isolated from rats. The experiment in a line: Hepatocyte protective effect against doxorubicin-induced hepatocyte toxicity (WST-1 viability). It is filed as cell-based. The conditions noted are these: Hepatocyte; against doxorubicin treatment; primary rat hepatocytes pretreated with compound 30 min; viability by WST-1 after 24-48 hours; concentration giving 50% of maximum protective effect. The procedure: Various endogenous/exogenous attacks on cells trigger the mechanisms of cell death which is broadly classified into two types—i.e., apoptosis or necrosis. Using these cell death mechanisms, in the present experimental example, primary hepatocytes isolated from rats were treated with drugs which were clinically shown to result in serious side-effects of hepatocyte toxicity or various chemicals which cause cell death, and the compounds synthesized in the Examples were estimated for their hepatocyte protective effects, after 24-48 hours. The substances used to cause hepatocyte death include CCl4, ActD, H2O2, doxorubicin, anti-Fas Ab/Actinomycin D, acetaminophen, EtOH, CdCl2, palmitate, stearate, cyclophosphamide, terfenadine, diclofenac, simvastatin, and adefovir. Primary hepatocytes were isolated using the method of Seglen P O (Experimental Cell Research 74 (1972), pp. 450-454). Briefly, hepatocytes were isolated according to the two-step collagenase perfusion method, and dead cells were removed by low speed (500 rpm) centrifugation for 10 min using percoll gradient (Kreamer B L et al., In Vitro Cellular & Developmental Biology 22 (1986), pp. 201-211). During this step, the viability of cells was maintained 90% or above. The cells were suspended in HepatoZYME media (Gibco BRL), and the number of cells was counted. 1.5×10^4 cells in 100 μl were placed into the collagen-coated 96-well plate (BD Biocoat), and adhered on the bottom for 3-4 hours.
In order to assess the hepatocyte protective effect, the above adhered cells were pretreated with the Example compounds for 30 min. At this time, the concentration of the Example compounds was serially diluted by 2-fold or 3-fold over 5 steps starting from 30 μM, 10 μM or 1 μM depending on the experiments, and the final concentration of DMSO was adjusted to 0.2%. 30 min after the treatment by the compounds, the cells were treated by the substances deriving hepatocyte death or hepatotoxic drugs at the concentrations indicated in Table 1. After 24-48 hours, the viability of cells was determined to estimate the hepatocyte protective effects. The viability of cells was determined using the WST-1 (MK-400, […]) method by the absorbance at 440 nm. Hepatocyte protective effects of the Example compounds were represented by “EC50” which was calculated from measured values. “EC50” herein means the concentration of the compound at which 50% of maximum protective effect is observed in the experiment.
A general note: Tetrazolium dyes change colour on reduction, which living cells bring about.
As to `N[C@H]1CCN(C(=O)c2cc3cc(Cl)cc(NC4CCCC4)c3[nH]2)C1` [Example 55, ((S)-3-amino-pyrrolidin-1-yl)-(5-chloro-7-cyclopentylamino-1H-indol-2-yl}-methanone], the EC50 was 0.43 µM.

For `NCC1CCN(C(=O)c2cc3cc(Cl)cc(N(CC4CC4)CC4CC4)c3[nH]2)C1` (centres unmarked) [Example 53, (3-Aminomethyl-pyrrolidin-1-yl)-[7-(bis-cyclopropylmethyl-amino)-5-chloro-1H-indol-2-yl]-methanone], the EC50 worked out at 0.71 µM.

For the compound `Cc1cc(NC2CCOCC2)c2[nH]c(C(=O)N3CC[C@H](C(=O)O)C3)cc2c1` [Example 38, (S)-1-[5-methyl-7-(tetrahydropyran-4-ylamino)-1H-indol-2-carbonyl]-pyrrolidin-3-carboxylic acid], the EC50 came out at 0.33 µM.

For `Cc1cc(NC2CCCC2)c2[nH]c(C(=O)N3CCNCC3)cc2c1` [Example 29, (7-Cyclopentylamino-5-methyl-1H-indol-2-yl)-piperazin-4-yl-methanone], the EC50 worked out at 0.2 µM.

In the case of `CC(C)CCNc1cc(Cl)cc2cc(C(=O)N3CCC(CN)C3)[nH]c12` (centres unmarked) [Example 46, (3-Aminomethyl-pyrrolidin-1-yl)-[5-chloro-7-(3-methyl-butylamino)-1H-indol-2-yl]-methanone], the EC50 was found to be 0.29 µM.

Consider `CC(C)CCN(CCC(C)C)c1cc(Cl)cc2cc(C(=O)N3C[C@@H](CN4CCCC4)[C@H](c4ccc(F)cc4F)C3)[nH]c12` [Example 60, {7-[Bis-(3-methyl-butyl)-amino]-5-chloro-1H-indol-2-yl}-[(3R,4R)-3-(2,4-difluoro-phenyl)-4-pyrrolidin-1-ylmethyl-pyrrolidin-1-yl]-methanone], for which the EC50 turned out to be 0.25 µM.

In the case of `CCCCCNc1cc(Cl)cc2cc(C(=O)N3CCC(CN)C3)[nH]c12` (centres unmarked) [Example 50, (3-Aminomethyl-pyrrolidin-1-yl)-(5-chloro-7-pentylamino-1H-indol-2-yl]-methanone], the EC50 came out at 0.175 µM.

For `O=C(Nc1cccc(CN2CCOCC2)c1)c1cc2cc(Cl)cc(NC3CCNCC3)c2[nH]1` [Example 13, 5-Chloro-7-(piperidin-4-ylamino)-1H-indol-2-carboxylic acid (3-morpholin-4-ylmethyl-phenyl)-amide], the EC50 was determined as 0.15 µM.

Staying with this experiment, now noted: against doxorubicin treatment; primary rat hepatocytes pretreated with compound 30 min; viability by WST-1 after 24-48 hours; concentration giving 50% of maximum protective effect.
Take `NCC1CCN(C(=O)c2cc3cc(Cl)cc(NCCc4ccccc4)c3[nH]2)C1` (centres unmarked) [Example 49, (3-Aminomethyl-pyrrolidin-1-yl)-(5-chloro-7-penethylamino-1H-indol-2-yl]-methanone]: the EC50 came out at 0.33 µM.

Regarding `NCC1CCN(C(=O)c2cc3cc(Cl)cc(NC4CCCCC4)c3[nH]2)C1` (centres unmarked) [Example 51], the EC50 was found to be 0.33 µM.

For the compound `NCC1CCCN(C(=O)c2cc3cc(Cl)cc(NC4CCCC4)c3[nH]2)C1` (centres unmarked) [Example 52], the EC50 was found to be 0.21 µM.

The term EC50 denotes the concentration at which the effect is half-maximal.

The values above are taken from patent US9868731B2, “Indole amide compound as inhibitor of necrosis” (LG CHEM, LTD., priority 2013, dated 2018).
